Values quoted from earlier work, collected in patent publication US20240398698A1, “CONAZOLANTIFUNGAL KETOE IN SOLUTION OR SUSPENSION FOR USE IN THE HUMAN EAR” (priority 2023, published 2024).

Q: What does the source list for `CC(=O)N1CCN(c2ccc(OCC3COC(Cn4ccnc4)(c4ccc(Cl)cc4Cl)O3)cc2)CC1` (stereo not drawn) [Ketoconazole, ketoconazole]?
A: solubility in acetic acid (acetic acid): not soluble; solubility in alcohol (alcohol): soluble; solubility in water (water): poorly soluble
